Results published in US20240091203A1, “METHODS FOR TREATING NON-OBSTRUCTIVE HYPERTROPHIC CARDIOMYOPATHY” (Cytokinetics, Incorporated, priority 2022, published 2024).

Experiments:
[1] = test system: patients with symptomatic non-obstructive HCM (nHCM) or HCM with MVO; experiment: Phase 2 trial (Example 2): cardiac biomarkers NT-proBNP and hs-cTnI; type: in vivo, human
Method: Echocardiograms obtained on day 1 of treatment, at weeks 2, 4, 6, and 10 of treatment, and two weeks after the last dose were analyzed for several key structural and physiologic metrics; measurements of N-terminal prohormone of brain natriuretic peptide (NT-proBNP), and cardiac troponin I were also monitored. Ambulatory cardiac monitoring was conducted one week before day 1 of treatment and at week 9.
The exploratory PD endpoints included but were not limited to: (i) The relationship of plasma concentration ranges of CK-3773274 to LVEF, LVFS, global longitudinal strain (GLS); (ii) Observed values and change from baseline in the echocardiography parameters described in Table 13 and evaluated by the core laboratory during treatment at Weeks 2, 4, 6, 10, and 12; (iii) Change in NT-proBNP from baseline to Week 10; (iv) Change in hs-cTnI from baseline to Week 10; (v) Proportion of patients with LVEF ≥50% and ≥50% reduction from baseline NT-proBNP.
For select PD measurements with statistical distributions likely to depart from normal, proportional change from baseline was evaluated.

[2] = Phase 1 plasma pharmacokinetics, multiple-ascending dose (MAD) cohorts; type: in vivo, human; settings: for AUC24 / Cmax / Tmax: Day 1; for AUC24 / Cmax / AUCtau / Cmax, ss: geometric mean; for AUC24 / Cmax / Tmax / AUCtau / Cmax, ss / CLss/F / t1/2 / Tmax, ss: n = 6; for Tmax / Tmax, ss: median; for CLss/F / t1/2: mean ± SD
Method: Multiple-ascending dose (MAD) cohorts. The MAD cohorts also used a randomized, double-blind, placebo-controlled, sequential design.
Pharmacokinetic analyses. For all study groups, blood samples for PK assessment were obtained pre-dose, up to 12 times daily on day 1, and then at regular intervals throughout the study. Blood samples were collected according to the following schedule: SAD Cohorts: Day 1: pre-dose and 0.25, 0.5, 1, 1.5, 2, 2.5, 3, 4, 6, 8, 12, 16, 24, 36, 48, 72, 96, and 216 h post dose. MAD Cohorts (14-day Dosing): Day 1: pre-dose and 0.25, 0.5, 1, 1.5, 2, 2.5, 3, 4, 6, 8, and 12 h post dose; Days 2, 4, 5, 6, and 9: pre-dose (corresponding to trough samples following dosing on days 1, 3, 4, 5, and 8) and 1.5 h post dose; Days 3, 7, 8, 10, 11, 12, and 13: pre-dose (corresponding to trough samples following dosing on days 2, 6, 7, 9, 10, 11, and 12); Day 14: pre-dose and 0.25, 0.5, 1.5, 2, 2.5, 3, 4, 6, 8, 12, 16, 24, 36, 48, 72, and 168 h post dose. MAD Cohort (17-Day Dosing): Day 1: pre-dose and 0.25, 0.5, 1, 1.5, 2, 2.5, 3, 4, 6, 8, and 12 h post dose; Days 2, 4, 5, 6, and 9: pre-dose (corresponding to trough samples following dosing on days 1, 3, 4, 5, and 8) and 1.5 h post dose; Days 3, 7, 8, 10, 11, 12, 13, 14, 15, and 16: pre-dose (corresponding to trough samples following dosing on days 2, 6, 7, 9, 10, 11, and 12); Day 17: pre-dose and 0.25, 0.5, 1.5, 2, 2.5, 3, 5, 7, 9, 12, 24, 36, 48, 72, and 168 h post dose. CYPD6-PM Cohort: Day 1: pre-dose and 0.25, 0.5, 1, 1.5, 2, 2.5, 3, 4, 6, 8, 12, 16, 24, 36, 48, 72, 96, 216, 312, and 552 h post dose. Food-Effect Cohort: Day 1: pre-dose and 0.25, 0.5, 1, 1.5, 2, 2.5, 3, 4, 6, 8, 12, 16, 24, 36, 48, 72, 96, 144, and 216 h post dose. Standard non-compartmental methods were used to calculate PK parameters using Phoenix® WinNonlin® Version 7.0; actual sample collection times were utilized.
For the MAD cohort, the parameters were AUC24 and Cmax on day 1, plus AUC to the end of the dosing period (AUCtau) and Cmax on day 14 or 17. The statistical linear relationship between the In-transformed PK parameters and the In-transformed dose was verified by including the quadratic (ln Dose)^2 and cubic (ln Dose)^3 effects. […] The dose-proportionality analysis was performed using SAS® PROC MIXED.
An analysis of variance (ANOVA) model was conducted separately for each dose level; day was included as the fixed effect. Helmert contrasts were developed such that each time-point was compared with the mean of the subsequent time-points.

[3] = end of treatment (week 10), second interim

Structure (SMILES): CCc1nc(-c2ccc3c(c2)CC[C@H]3NC(=O)c2cnn(C)c2)no1 [aficamten, (R)—N-(5-(5-ethyl-1,2,4-oxadiazol-3-yl)-2,3-dihydro-1H-inden-1-yl)-1-methyl-1H-pyrazole-4-carboxamide]
- symptoms, NT-proBNP and hs-Troponin I in patients with mid-ventricular obstruction (MVO) ([1]; 7 patients with MVO, second interim): All patients in this subgroup showed symptom improvement and reduction in both NT-proBNP and hs-Troponin I levels
- cardiac biomarkers (NT-proBNP, hs-cTnI) after washout ([1]; after the 2-week washout): rebounded upwards off drug
- reduction of NT-proBNP (geometric mean, proportional change from baseline) ([1]; end of treatment (week 10), interim, p<0.0001): 56%
- reduction of hs-cTnI (proportional to baseline) ([1]; end of treatment (week 10), interim, p<0.05): 21%
- mean (SE) reduction of NT-proBNP [1, 3]: -870 pg/mL
- mean (SE) reduction of hs-cTnI [1, 3]: -24.8 ng/L
- reduction of NT-proBNP ([1]; end of treatment (week 10), second interim, p<0.0001): 55%
- reduction of hs-cTnI ([1]; end of treatment (week 10), second interim, p<0.05): 21%
- AUC24 ([2]; MAD 5 mg qd × 14 Days): 278 ng·h/mL
- Cmax ([2]; MAD 5 mg qd × 14 Days): 28.0 ng/mL
- Tmax ([2]; MAD 5 mg qd × 14 Days): 1.3 h
- AUCtau ([2]; MAD 5 mg qd, Day 14): 1320 ng·h/mL
- Cmax, ss ([2]; MAD 5 mg qd, Day 14): 69.0 ng/mL
- CLss/F ([2]; MAD 5 mg qd, Day 14): 3.9 ± 0.9 L/h
- t1/2 ([2]; MAD 5 mg qd, Day 14): 86.4 ± 11.9 h
- Tmax, ss ([2]; MAD 5 mg qd, Day 14): 2.8 h
- Tmax ([2]; MAD 7.5 mg qd × 17 Days): 0.8 h
- AUCtau ([2]; MAD 7.5 mg qd, Day 17): 2518 ng·h/mL
- Cmax, ss ([2]; MAD 7.5 mg qd, Day 17): 147.6 ng/mL
- CLss/F ([2]; MAD 7.5 mg qd, Day 17): 3.1 ± 0.7 L/h
- t1/2 ([2]; MAD 7.5 mg qd, Day 17): 76.9 ± 14.5 h
- AUC24 ([2]; MAD 10 mg qd × 14 Days): 547 ng·h/mL
- Cmax ([2]; MAD 10 mg qd × 14 Days): 54.4 ng/mL
- Tmax ([2]; MAD 10 mg qd × 14 Days): 1.0 h
- AUCtau ([2]; MAD 10 mg qd, Day 14): 2632 ng·h/mL
- Cmax, ss ([2]; MAD 10 mg qd, Day 14): 141.2 ng/mL
- CLss/F ([2]; MAD 10 mg qd, Day 14): 3.9 ± 0.8 L/h
- t1/2 ([2]; MAD 10 mg qd, Day 14): 79.8 ± 14.1 h
- Tmax, ss ([2]; MAD 10 mg qd, Day 14): 2.5 h
- steady state achieved by end of day ([2]; MAD 5-mg and 7.5-mg doses): 12 days
- steady state achieved by end of day ([2]; MAD 10-mg dose): 10 days
- time to steady state ([2]; once-daily dosing): ≤ 2 weeks
